≈ marks a conversion by molar mass, not a printed value.
Tested on: Mycobacterium tuberculosis variant bovis BCG
Assay: microbe, parasite or virus in culture
Format: functional

Structure (SMILES) | MIC90 [µM]
CCc1ccc(S(=O)(=O)Nc2cc(CN3CCN(CCC(C)C)CC3)ccc2C)cc1.O=C(O)C(F)(F)F.O=C(O)C(F)(F)F | 6.3
COc1ccc(S(=O)(=O)N(C)C)cc1C(=O)N[C@H]1CCN2CC(c3ccccc3)C[C@H]2C1 (stereo partly specified) | 0.4 (≈ 0.183 µg/mL)
Cc1ccc(Cl)cc1Oc1ccncc1CNc1ccccc1S(C)(=O)=O | 7.1 (≈ 2.86 µg/mL)
c1csc(-c2nnc(Sc3ccnc(N4CCN(c5ccncc5)CC4)n3)n2CCCN2CCOCC2)c1 | 5.4 (≈ 2.97 µg/mL)
O=C(Nc1nc(-c2ccccn2)cs1)c1ccc(-c2ccccc2F)o1 | 5.2 (≈ 1.9 µg/mL)
Cc1ccc(-c2ccnc(-c3cccc(-c4ccccn4)n3)c2)cc1 | 6.1 (≈ 1.97 µg/mL)
COc1cccc(-c2cc(OC[C@@H]3CCCN3)cnc2-c2cccc(C(F)(F)F)c2)c1 | 5.9 (≈ 2.53 µg/mL)
COc1ccc(C(=O)[C@H]2C[C@@H]2CN(Cc2ccccn2)Cc2ccccn2)cc1 | 7.7 (≈ 2.98 µg/mL)
O=C(NC1CCN(Cc2ccsc2)C1)c1sccc1-c1cccc(F)c1 (stereo unspecified) | 7.3 (≈ 2.82 µg/mL)
O=C(Nc1nc(-c2ccccn2)cc2ccccc12)c1cccc(Cl)c1 | 3 (≈ 1.08 µg/mL)
C=Cn1cccc1C(=O)N1CCCC(n2cnc3sc(C)c(CC)c3c2=O)C1 (stereo unspecified) | 7.3 (≈ 2.89 µg/mL)
O=C(Nc1nc(-c2ccccn2)cs1)c1ccc(-c2ccc(F)cc2)s1 | 3.6 (≈ 1.37 µg/mL)
COc1cc(C2c3c(-c4ccccc4)n[nH]c3C(=O)N2c2ccc(Cl)cc2)ccc1O (stereo unspecified) | 5.4 (≈ 2.33 µg/mL)
CC(C)c1ccc2oc(-c3ccc(NC(=O)c4cccnc4)cc3)nc2c1 | 1.2 (≈ 0.429 µg/mL)
CCCc1cc(N2CCN(CC#N)CC2)n2ncc(-c3ccccc3)c2n1 | 5.1 (≈ 1.84 µg/mL)
c1cc(CN2CCC3(CC2)OCCc2sccc23)nc(-c2ccc3c(c2)OCO3)c1 | 2.3 (≈ 0.967 µg/mL)
Cc1nc2ccccc2n1CC(O)COc1ccc(NC(=O)c2ccccc2)cc1 (stereo unspecified) | 3.9 (≈ 1.57 µg/mL)
Nc1ccc(C(=O)C(=O)c2ccc(N)cc2)cc1 | 0.4 (≈ 0.0961 µg/mL)
c1coc(-c2nnc(Sc3ccnc(N4CCN(c5ccncc5)CC4)n3)n2CCN2CCOCC2)c1 | 5.3 (≈ 2.75 µg/mL)

Structure (SMILES) | MIC90 [µM]
Cc1cc(/C=C/c2cccc(C(=O)O)c2)cc(Cl)c1OC1CCN(C)C1 (stereo unspecified) | 8 (≈ 2.97 µg/mL)
CCSc1cccc(C(=O)Nc2nnc(-c3ccc(C)cc3C)o2)c1 | 5.2 (≈ 1.84 µg/mL)
CC(C)C(NC(=O)CCc1nc2ccccc2oc1=O)c1nc2ccccc2[nH]1 (stereo unspecified) | 4.4 (≈ 1.72 µg/mL)
N[C@@H]1CCN(c2nc(-c3ccccc3)nc3ccccc23)C1 | 1.4 (≈ 0.407 µg/mL)
CC1CC(NC(=O)c2ccc(Oc3ccccc3)cc2)CC(C)(C)C1 (stereo unspecified) | 9.5 (≈ 3.21 µg/mL)
Cc1ccc2nc(C(F)(F)F)c(C(=O)NCc3cccc(OC(C)C)c3)n2c1 | 1.9 (≈ 0.744 µg/mL)
CCc1nn2c(C3CCCNC3)ccnc2c1-c1ccc(OC)cc1 (stereo unspecified) | 1.5 (≈ 0.505 µg/mL)
O=C(Nc1ccc(OC(F)(F)F)cc1)NC1CCCCC1 | 4.8 (≈ 1.45 µg/mL)
COc1cc2c(cc1OC)C(c1ccccc1)N(C(=O)c1nn(C)c(=O)c3ccccc13)CC2 (stereo unspecified) | 6.3 (≈ 2.87 µg/mL)
Cc1csc(NC(=O)CSc2nc(C)c(C)n2Cc2ccc(Cl)cc2)c1C#N | 0.9 (≈ 0.388 µg/mL)
C[C@@H]1CN(c2ccc(C#N)c(C(F)(F)F)c2)CCN1 | 4.2 (≈ 1.13 µg/mL)
Cc1cc(C)n(-c2nc(C)c(Br)c(N(C)CCO)n2)n1 | 4.7 (≈ 1.6 µg/mL)
COc1ccc(-c2cncc(-c3cc(N4CCN(CCO)CC4)nc(-c4ccccc4)n3)c2)cc1 | 7.9 (≈ 3.69 µg/mL)
c1ccc(-c2nc(N3CCCCCC3)nc(-n3ccnc3)n2)cc1 | 9.6 (≈ 3.08 µg/mL)
C[C@@H]1CN(c2ncnc3c2nc(C2CC2)n3C2CCNC2)C[C@H](C)O1 (stereo partly specified) | 7.5 (≈ 2.57 µg/mL)
Cc1cc(Oc2cccc(CN3CCCC3)c2)nc(NCCc2ccccc2)n1 | 8.9 (≈ 3.46 µg/mL)
Nc1cc(-c2ccc(Cl)cc2)nn1-c1cccc(C(=O)NCC2CC(=O)N(c3ccccc3)C2)c1 (stereo unspecified) | 5.9 (≈ 2.87 µg/mL)
O=C(Nc1cccc(C(=O)N2CCCCC2c2nc3ccccc3s2)c1)c1cccs1 (stereo unspecified) | 0.1 (≈ 0.0448 µg/mL)
CC(c1nc2ccccc2s1)N(C)C(=O)c1cccc(NC(=O)c2cccs2)c1 (stereo unspecified) | 0.3 (≈ 0.126 µg/mL)

Structure (SMILES) | MIC90 [µM]
COCCN1CCN(c2ncc(-c3ccccc3OCc3cc(C)on3)cn2)CC1 | 4.4 (≈ 1.8 µg/mL)
COc1ccc(N2CCN(c3ccc(C#N)cc3C(F)(F)F)CC2)c(OC)c1 | 3.7 (≈ 1.45 µg/mL)
c1cncc(NCc2ccc(-c3cc4ccncc4cc3OC3CCNCC3)s2)c1 | 8.3 (≈ 3.46 µg/mL)
CCc1c(C)nc(-n2nc(C)cc2NC(=O)c2ccccc2SC)[nH]c1=O | 3.6 (≈ 1.38 µg/mL)
Fc1ccccc1-c1noc(N2CCN(Cc3ccc4c(c3)OCO4)CC2)n1 | 6.7 (≈ 2.56 µg/mL)
CC(C)Sc1ccc(C(=O)Nc2nc(-c3ccccn3)cs2)cc1 | 1.2 (≈ 0.427 µg/mL)
c1ccc(-c2nc(NC3CCCCC3)cc(C3CC3)n2)nc1 | 3.7 (≈ 1.09 µg/mL)
CC(=O)Nc1ccc(S(=O)(=O)Nc2ccc(N3CCCCC3)cc2)cc1 | 5.2 (≈ 1.94 µg/mL)
COc1ccc(CC(=O)Nc2c(-c3cccs3)nc3cc(C)ccn23)cc1 | 9.2 (≈ 3.47 µg/mL)
CC1Sc2ccc(C(=O)N3CCCCC3c3nc4ccccc4s3)cc2NC1=O (stereo unspecified) | 9.8 (≈ 4.15 µg/mL)
O=C(C=Cc1ccco1)N1CCN(Cc2ccc3c(c2)OCO3)CC1 | 7 (≈ 2.38 µg/mL)
CCc1ccc(Nc2nnc(SCc3cc(C)on3)s2)cc1 | 7.4 (≈ 2.46 µg/mL)
COc1ccc(N(C(=O)CNc2ccccc2Nc2ccc(Cl)cc2)C(C)C)cc1 | 2.6 (≈ 1.1 µg/mL)
Fc1ccc2[nH]c(-c3cccc(-c4ccc(CNCCN5CCNCC5)cc4)c3)nc2c1 | 6.7 (≈ 2.88 µg/mL)
O=C(c1cccc(-n2cnnn2)c1)N1CCCCC1c1nc2ccccc2s1 (stereo unspecified) | 8 (≈ 3.12 µg/mL)
CN(C)S(=O)(=O)c1ccc(C(=O)Nc2nnc(-c3ccc(Cl)s3)o2)cc1 | 5.7 (≈ 2.35 µg/mL)
CSc1ccccc1C(=O)Nc1nc(-c2ccccn2)cs1 | 3.8 (≈ 1.24 µg/mL)
Cc1ccc(NC(=O)c2nc(N3CCCN(C)CC3)ccc2Cl)cc1F | 8.8 (≈ 3.32 µg/mL)
